We go through 1 compound from patent US7169424B2, “Mold inhibitor having reduced corrosiveness” (Kemin Industries, Inc., priority 2003, dated 2007).

The nature of the data set: pH. Format: physicochemical. The conditions noted are these: free propionic acid, stated in the discussion.

As to `CCC(=O)O` [free propionic acid, propionic acid], the pH entry is “less than 2”.
